Measurements as given in patent US20100041089A1, “IMPROVED METHOD FOR DETECTING CHEMICAL […]” (priority 2006, published 2010).

Test system: yeast genes (expressed mRNA)
Test: DNA chip measurement of expressed mRNA of yeast genes after culture with a toxic chemical substance
Format: cell-based, Saccharomyces cerevisiae S288C
Conditions: for level of expressed mRNA in the presence of chemical substance / level in the absence of chemical substance: cultured two hours with the chemical substance; for The level of expressed mRNA in the presence of chemical substance/The level of expressed mRNA in the absence of chemical substance: cultured two hours with substance
How it was run: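 S. cerevisiae S288C grown at 25 °C in YPD, exposed in log phase for 2 h to a toxicant at growth-inhibiting, non-lethal concentration. Cy3/Cy5-labelled cDNA from poly(A) mRNA hybridized to whole-genome chip at 65 °C >12 h. Ratio to untreated control, ≥2 significant.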

CCCCCCCCCCCCc1ccc(S(=O)(=O)[O-])cc1.[Na+] [(17), Sodium dodecylbenzosulfonate]
level of expressed mRNA in the presence of chemical substance / level in the absence of chemical substance (yeast gene YJL097W): 1.2
The level of expressed mRNA in the presence of chemical substance/The level of expressed mRNA in the absence of chemical substance (yeast gene YJL151C): 3.5
The level of expressed mRNA in the presence of chemical substance/The level of expressed mRNA in the absence of chemical substance (yeast gene YJL152W): 2.5
The level of expressed mRNA in the presence of chemical substance/The level of expressed mRNA in the absence of chemical substance (yeast gene YJL161W): 1.9
The level of expressed mRNA in the presence of chemical substance/The level of expressed mRNA in the absence of chemical substance (yeast gene YJL171C): 3.6
The level of expressed mRNA in the presence of chemical substance/The level of expressed mRNA in the absence of chemical substance (yeast gene YJR008W): 1.5
level of expressed mRNA in the presence of chemical substance / level in the absence of chemical substance (yeast gene YJR030C): 0.7
The level of expressed mRNA in the presence of chemical substance/The level of expressed mRNA in the absence of chemical substance (yeast gene YJR054W): 0.9
level of expressed mRNA in the presence of chemical substance / level in the absence of chemical substance (yeast gene YKL051W): 1.5
The level of expressed mRNA in the presence of chemical substance/The level of expressed mRNA in the absence of chemical substance (yeast gene YKL071W): 1.0
The level of expressed mRNA in the presence of chemical substance/The level of expressed mRNA in the absence of chemical substance (yeast gene YKL086W): 0.9
level of expressed mRNA in the presence of chemical substance / level in the absence of chemical substance (yeast gene YKL097C): 1.1
level of expressed mRNA in the presence of chemical substance / level in the absence of chemical substance (yeast gene YKL100C): 0.7
The level of expressed mRNA in the presence of chemical substance/The level of expressed mRNA in the absence of chemical substance (yeast gene YKL151C): 1.4
The level of expressed mRNA in the presence of chemical substance/The level of expressed mRNA in the absence of chemical substance (yeast gene YKL153W): 0.9
The level of expressed mRNA in the presence of chemical substance/The level of expressed mRNA in the absence of chemical substance (yeast gene YKL195W): 1.4
level of expressed mRNA in the presence of chemical substance / level in the absence of chemical substance (yeast gene YKR040C): 0.7
The level of expressed mRNA in the presence of chemical substance/The level of expressed mRNA in the absence of chemical substance (yeast gene YKR091W): 1.6
The level of expressed mRNA in the presence of chemical substance/The level of expressed mRNA in the absence of chemical substance (yeast gene YLR054C): 1.6
The level of expressed mRNA in the presence of chemical substance/The level of expressed mRNA in the absence of chemical substance (yeast gene YLR149C): 1.3
The level of expressed mRNA in the presence of chemical substance/The level of expressed mRNA in the absence of chemical substance (yeast gene YLR152C): 1.5
The level of expressed mRNA in the presence of chemical substance/The level of expressed mRNA in the absence of chemical substance (yeast gene YLR194C): 1.0
level of expressed mRNA in the presence of chemical substance / level in the absence of chemical substance (yeast gene YLR226W): 1.1
The level of expressed mRNA in the presence of chemical substance/The level of expressed mRNA in the absence of chemical substance (yeast gene YLR324W): 1.2
level of expressed mRNA in the presence of chemical substance / level in the absence of chemical substance (yeast gene YLR338W): 0.8
The level of expressed mRNA in the presence of chemical substance/The level of expressed mRNA in the absence of chemical substance (yeast gene YLR350W): 1.6
The level of expressed mRNA in the presence of chemical substance/The level of expressed mRNA in the absence of chemical substance (yeast gene YLR387C): 1.0
level of expressed mRNA in the presence of chemical substance / level in the absence of chemical substance (yeast gene YLR392C): 0.8
level of expressed mRNA in the presence of chemical substance / level in the absence of chemical substance (yeast gene YLR415C): 0.8
level of expressed mRNA in the presence of chemical substance / level in the absence of chemical substance (yeast gene YLR427W): 1.0
The level of expressed mRNA in the presence of chemical substance/The level of expressed mRNA in the absence of chemical substance (yeast gene YLR460C): 1.0
level of expressed mRNA in the presence of chemical substance / level in the absence of chemical substance (yeast gene YML013W): 1.1
level of expressed mRNA in the presence of chemical substance / level in the absence of chemical substance (yeast gene YML029W): 1.2
level of expressed mRNA in the presence of chemical substance / level in the absence of chemical substance (yeast gene YML041C): 1.3
level of expressed mRNA in the presence of chemical substance / level in the absence of chemical substance (yeast gene YML079W): 1.4
The level of expressed mRNA in the presence of chemical substance/The level of expressed mRNA in the absence of chemical substance (yeast gene YML117W): 1.1
The level of expressed mRNA in the presence of chemical substance/The level of expressed mRNA in the absence of chemical substance (yeast gene YMR009W): 2.7
The level of expressed mRNA in the presence of chemical substance/The level of expressed mRNA in the absence of chemical substance (yeast gene YMR067C): 1.0
level of expressed mRNA in the presence of chemical substance / level in the absence of chemical substance (yeast gene YMR068W): 1.3
level of expressed mRNA in the presence of chemical substance / level in the absence of chemical substance (yeast gene YMR071C): 1.2
The level of expressed mRNA in the presence of chemical substance/The level of expressed mRNA in the absence of chemical substance (yeast gene YMR090W): 1.8
The level of expressed mRNA in the presence of chemical substance/The level of expressed mRNA in the absence of chemical substance (yeast gene YMR095C): 1.0
The level of expressed mRNA in the presence of chemical substance/The level of expressed mRNA in the absence of chemical substance (yeast gene YMR097C): 1.4
The level of expressed mRNA in the presence of chemical substance/The level of expressed mRNA in the absence of chemical substance (yeast gene YMR102C): 2.4
The level of expressed mRNA in the presence of chemical substance/The level of expressed mRNA in the absence of chemical substance (yeast gene YMR107W): 1.3
level of expressed mRNA in the presence of chemical substance / level in the absence of chemical substance (yeast gene YMR160W): 0.9
The level of expressed mRNA in the presence of chemical substance/The level of expressed mRNA in the absence of chemical substance (yeast gene YMR180C): 1.4
The level of expressed mRNA in the presence of chemical substance/The level of expressed mRNA in the absence of chemical substance (yeast gene YMR184W): 1.4
The level of expressed mRNA in the presence of chemical substance/The level of expressed mRNA in the absence of chemical substance (yeast gene YMR191W): 1.2
The level of expressed mRNA in the presence of chemical substance/The level of expressed mRNA in the absence of chemical substance (yeast gene YMR295C): 2.1
The level of expressed mRNA in the presence of chemical substance/The level of expressed mRNA in the absence of chemical substance (yeast gene YMR316W): 6.9
level of expressed mRNA in the presence of chemical substance / level in the absence of chemical substance (yeast gene YNL026W): 1.0
The level of expressed mRNA in the presence of chemical substance/The level of expressed mRNA in the absence of chemical substance (yeast gene YNL044W): 3.1
